Measurements published in paper PMC2630467 (Journal of medicinal chemistry, 2008).
“Also recorded” adds a separate entry of the source.

Tests used:
CYP2C9 [1] = biological target: T1, CYP2C9 (Homo sapiens, UniProt P11712); test: UV difference spectroscopy of binding and substrate titrations with purified 2C9; conditions: UV difference spectra 350-500 nm
CYP2C9 [2] = biological target: T1, CYP2C9; test: EPR studies on binding modes with ferric 2C9; conditions: ferric 2C9 18.5 μM, substrate 1 mM, 20 K
CYP2C9 [3] = biological target: T1, CYP2C9; test: Reconstituted purified 2C9 system inhibition; type: biochemical

T1 sequence (P11712 whole entry): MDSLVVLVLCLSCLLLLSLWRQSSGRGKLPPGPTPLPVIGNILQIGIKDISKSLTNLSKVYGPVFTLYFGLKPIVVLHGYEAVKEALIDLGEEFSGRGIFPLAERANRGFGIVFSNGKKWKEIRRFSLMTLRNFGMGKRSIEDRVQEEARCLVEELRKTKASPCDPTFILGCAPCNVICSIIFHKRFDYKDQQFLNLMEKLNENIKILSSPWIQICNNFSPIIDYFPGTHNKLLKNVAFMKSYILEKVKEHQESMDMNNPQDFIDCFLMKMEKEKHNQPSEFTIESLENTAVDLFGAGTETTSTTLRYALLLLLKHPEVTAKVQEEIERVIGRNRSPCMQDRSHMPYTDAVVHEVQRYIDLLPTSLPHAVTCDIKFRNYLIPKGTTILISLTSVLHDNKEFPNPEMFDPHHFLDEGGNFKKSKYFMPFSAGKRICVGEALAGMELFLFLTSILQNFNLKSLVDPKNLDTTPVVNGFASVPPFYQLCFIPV

## O=C(c1cc(-c2ccncc2)nc2ccccc12)N1CCCCC1 [Compound 1, Piperidin-1-yl(2-(pyridin-4-yl)quinolin-4-yl)methanone]
CYP2C9 [1]
  Binding Type UV: typical Type II binding spectra
CYP2C9 [2]
  Binding Type EPR: Type II

## O=C(c1cc(-c2cccnc2)nc2ccccc12)N1CCCCC1 [Compound 2, Piperidin-1-yl(2-(pyridin-3-yl)quinolin-4-yl)methanone]
CYP2C9 [1]
  Binding Type UV: mixed Type I and Type II binding
CYP2C9 [2]
  Binding Type EPR: Type I

## O=C(Nc1ccc2ccccc2c1)c1cc(-c2ccncc2)nc2ccccc12 [Compound 7, N-(naphthalen-2-yl)-2-(pyridin-4-yl)quinoline-4-carboxamide]
CYP2C9 [2]
  Binding Type EPR: low-spin shift; also recorded: pure Type II

## O=C(Nc1ccc2ccccc2c1)c1cc(-c2cccnc2)nc2ccccc12 [Compound 8, N-(naphthalen-2-yl)-2-(pyridin-3-yl)quinoline-4-carboxamide]
CYP2C9 [2]
  Binding Type EPR: Type I

## O=C(Nc1ccc2ccccc2c1)c1cc(-c2ccccn2)nc2ccccc12 [Compound 9, N-(naphthalen-2-yl)-2-(pyridin-2-yl)quinoline-4-carboxamide]
CYP2C9 [2]
  Binding Type EPR: Type I

## O=C(Nc1ccccc1)c1cc(-c2ccncc2)nc2ccccc12 [Compound 13, N-phenyl-2-(pyridin-4-yl)quinoline-4-carboxamide]
CYP2C9 [3]
  Ki: 79.8 nM
CYP2C9 [1]
  Binding Type UV: clear Type II binding spectra; also recorded: typical Type II binding spectra

## O=C(Nc1ccccc1)c1cc(-c2cccnc2)nc2ccccc12 [Compound 14, N-phenyl-2-(pyridin-3-yl)quinoline-4-carboxamide]
CYP2C9 [1]
  Binding Type UV: mixed Type II and Type I binding modes

## O=C(Nc1ccccc1)c1cc(-c2ccccn2)nc2ccccc12 [Compound 15, N-phenyl-2-(pyridin-2-yl)quinoline-4-carboxamide]
CYP2C9 [1]
  Binding Type UV: does not give a either a Type I or Type II binding spectra

## Cc1cc(C)c2nc(-c3cccnc3)cc(C(=O)Nc3ccc4ccccc4c3)c2c1 [Compound 17, 6,8-dimethyl-N-(naphthalen-2-yl)-2-(pyridin-3-yl)quinoline-4-carboxamide]
CYP2C9 [2]
  Binding Type EPR: Type I

## Cc1cc(C)c2nc(-c3ccccn3)cc(C(=O)Nc3ccc4ccccc4c3)c2c1 [Compound 18, 6,8-dimethyl-N-(naphthalen-2-yl)-2-(pyridin-2-yl)quinoline-4-carboxamide]
CYP2C9 [2]
  Binding Type EPR: Type I

## O=C(Nc1ccc2ccccc2c1)c1cc(-c2ccncc2)nc2ccc(Cl)cc12 [Compound 19, 6-chloro-N-(naphthalen-2-yl)-2-(pyridin-4-yl)quinoline-4-carboxamide]
CYP2C9 [2]
  Binding Type EPR: low-spin shift; also recorded: mixed mode; also recorded: Type II/Type I
